Assay results: patent publication US7979117B2, “Device and method for controlled delivery of active substance into the skin” (Power Paper Ltd., priority 2001, dated 2011)
“And” between values parts separate entries of the source, which are not always exact repeats. Identical values can stand only once.

Experiment: Dual chamber in-vitro skin penetration test (iontophoresis vs passive)
Assay type: in vitro ADME, Porcine
Description: One type of skin penetration test can be implemented in-vitro by using excised swine skin membrane with two electrodes placed thereon, with one of the two being associated with a formulation including an active substance to be delivered by iontophoresis, as described, for example in: P. Glikfeld, C. Cullander, R. S. Hinz, and R. H. Guy, A new system for in vitro studies of iontophoresis, Pharm. Res. 5: 443-446 (1988) (hereinafter, the “dual chamber in-vitro test”). Description of the experimental design of an in-vitro skin penetration test is provided in Example No. 1. In a non-limiting way, any of the following parameters can be varied and tested with this model: voltage, current and current density, concentration of an active substance, pH, viscosity, concentration of a buffer, concentration of an electrolyte, concentration of a polymeric substance which is used to render certain rheological properties, conductivity, viscosity and adhesiveness. The influence of pore size and density of a substrate can also be assessed in a modified in-vitro skin penetration test. Delivery of the active substance into and through the skin will be determined as a function of the time of current passage.
Example No. 1 was devised to define, in a preclinical study, the optimal iontophoretic parameters for the delivery of an active substance contained in a cosmetic carrier into the skin, while minimizing systemic exposure.
In general, the active agent is formulated in a buffered, conducting solution, gel, cream, or any other optional cosmetically acceptable carrier. Competing ions are kept to a minimum. Iontophoresis is performed in vertical diffusion cells, in which the skin membrane separates the physically- and electrically-isolated anode and cathode chambers from the receptor phase, or in modified side-by-side cells of a newer design. The anode and receptor compartments contain physiologically-buffered saline at pH 7, while the cathode compartment is charged with the gel containing the active.
The skin membrane is from the porcine ear (Alternatively, human (cadaver) or nude mouse skin can be used). The skin is excised with a dermatome set to an approximate depth of 500 μm. The area of skin exposed in each electrode compartment is 0.64 cm^2.
The electrodes transmitting the electrical current are made of Ag/AgCl or graphite, prepared in a customary fashion. A constant current is passed between the electrodes and controlled by a custom-built power supply (Professional Design and Development Services, Berkeley, Calif.).
In each study, preparation, with electrical current (“Iontophoretic System”) and without electrical current (“Control”), are tested. Exposure period is 20-30 minutes. Six replicates are performed per experiment. Prior to each experiment, the viability and integrity of skin barrier function is checked via a measurement of transepidermal water loss (TEWL).
At the end of the exposure period, the entire receptor compartment is drained and the solution reserved for subsequent analysis of the active agent(s) (“Active”). The skin is removed, and the surfaces carefully cleaned and dried. Subsequently, the stratum corneum (“SC”) beneath the cathode chamber is removed by repeated 15 adhesive tape strippings (“TS”). The Active is extracted from the respective tapes and assayed to yield a total uptake of the compound into the SC. The remaining SC-stripped skin from beneath the cathode is then appropriately treated so as to recover the Active, which had crossed the SC barrier, during iontophoresis, and reached into the underlying epidermis/upper dermis. The Active is determined quantitatively using customary analytical procedures (e.g., HPLC, UV spectrum, GC, radiolabeled detection, etc.), as applicable.
Results of an In-Vitro Skin Penetration Test for Magnesium Ascorbyl Phosphate (MAP) Aqueous Solution, Using the “Dual Chamber In-Vitro Test”
Active Substance: Magnesium Ascorbyl Phosphate (MAP) (Vitamin C Derivative) […]

[1] = Iontophoretic System, 3% in distilled water, 25 mg applied, pH 7.0-7.4, 0.150 mA/cm^2, 30 minutes, individual cell
[2] = Iontophoretic System, 3%, 0.150 mA/cm^2, 30 minutes, Mean of 6 cells
[3] = Passive Control (without electrical current)

Amount of Active, Receptor (transferred through the skin) [2]: 43 µg and 43.15 µg
Amount of Active, TS # 1, 2 [2]: 73.77 µg
Amount of Active, TS # 3-15 [2]: 42.06 µg
Amount of Active, TS Total [2]: 115.82 µg
mean amount found in the receptor [3]: 2 µg
mean total amount found in tape strippings #1-15, compared with Iontophoretic System [3]: in the same order of magnitude
Compound: O=C1O[C@H]([C@@H](O)CO)C([O-])=C1OP(=O)([O-])[O-].O=C1O[C@H]([C@@H](O)CO)C([O-])=C1OP(=O)([O-])[O-].[Mg+2].[Mg+2].[Mg+2] [MAP, Magnesium Ascorbyl Phosphate]
Amount of Active, Receptor [1]: 47.66 µg and 122.75 µg and 14.62 µg and 23.47 µg and 24.99 µg and 25.43 µg
Amount of Active, TS # 1, 2 [1]: 92.41 µg and 50.37 µg and 103.88 µg and 132.28 µg and 48.43 µg and 89.89 µg
Amount of Active, TS # 3-15 [1]: 89.22 µg and 2.94 µg and 115.27 µg and 43.90 µg and 8.71 µg and 50.43 µg
Amount of Active, TS Total [1]: 181.63 µg and 53.31 µg and 219.15 µg and 176.18 µg and 57.14 µg and 140.32 µg
Amount of Active, Viable Skin [1]: 33.94 µg and 4.55 µg and 56.67 µg and 8.44 µg and 19.24 µg and 10.30 µg
Total TS # 3-15 + Viable Skin [1]: 123.16 µg and 7.49 µg and 171.94 µg and 52.34 µg and 27.95 µg and 60.73 µg
Total TS # 3-15 + Viable skin [1]: 183.82 μg/cm2 and 11.18 μg/cm2 and 256.63 μg/cm2 and 78.12 μg/cm2 and 41.72 μg/cm2 and 10.89 μg/cm2
Amount of Active, Viable Skin [2]: 23 µg and 23.07 µg
Total TS # 3-15 + Viable Skin (amount in the skin) [2]: 65 µg and 65.13 µg
Total TS # 3-15 + Viable skin [2]: 97.21 μg/cm2
total amount found in the skin (TS#1-15+ Viable skin) (Iontophoretic System, 3%, 0.150 mA/cm^2, 30 minutes, mean): 139 µg
mean amount found in the viable skin [3]: 1 µg
